Earlier results as cited in patent US10675240B2 (priority 2014, dated 2020).

Conditions: background statement

## CC1=CC[C@H]2C[C@@H]1C2(C)C [α-Pinene, (1S,5S)-2,6,6-Trimethylbicyclo[3.1.1]hept-2-ene]
  human pulmonary uptake: 60%
